Reference: paper PMC11272821, “Mechanistic safety assessment via multi-omic characterisation of systemic pathway perturbations following in vivo MAT2A inhibition” (Archives of Toxicology, 2024)
pIC50: −log10 of the molar value.

Legend:
[1] = system: THP-1; assay: THP1 cytotoxicity; type: cell-based; conditions: read-out: THP-1 Cytotox IC50
From the text: Full curve IC50 (µM) for hERG (human ether-a-go-go-related gene) and the cardiac ion channel panel (sodium and potassium ion channels; Nav1.5, IKs, Kv4.3), along with the L-type Calcium channel (Cav-1.2 Ver; verapamil, DIL; diltiazem), HepG2 C3A 3D spheroids, HepG2 C3A (2D cultures in glucose or galactose media), and THP1 cytotoxicity.

[2] = biological target: T1, Phosphodiesterase PDE4D2 (Homo sapiens, UniProt Q08499); assay: Enzyme assay; type: biochemical
T1 construct: Eurofins
T1 sequence (Q08499 303-809 limits assumed): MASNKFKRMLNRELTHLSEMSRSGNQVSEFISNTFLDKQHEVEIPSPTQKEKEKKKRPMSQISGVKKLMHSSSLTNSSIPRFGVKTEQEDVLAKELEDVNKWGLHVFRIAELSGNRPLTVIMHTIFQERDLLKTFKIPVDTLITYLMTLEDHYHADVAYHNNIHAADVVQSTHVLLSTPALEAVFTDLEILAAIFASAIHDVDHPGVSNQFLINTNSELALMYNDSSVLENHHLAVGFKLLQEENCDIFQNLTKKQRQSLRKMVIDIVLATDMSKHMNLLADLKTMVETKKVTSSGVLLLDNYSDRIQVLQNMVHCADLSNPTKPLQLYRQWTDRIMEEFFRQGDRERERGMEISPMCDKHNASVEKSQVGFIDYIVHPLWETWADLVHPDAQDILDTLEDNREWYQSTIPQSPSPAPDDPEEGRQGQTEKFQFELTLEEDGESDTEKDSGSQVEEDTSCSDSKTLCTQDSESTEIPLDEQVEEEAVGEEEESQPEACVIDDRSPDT
Experimental: (§1) Secondary pharmacology assays were performed at Eurofins using standard experimental techniques against a total of 86 targets across a broad pharmacological space. Assay details along with experimental protocols are described at https://www.eurofinsdiscoveryservices.com. […] Assays measuring substrate turnover or phosphorylation by isolated proteins were used for kinase and enzyme targets, allowing direct determination of the mode of action of the compounds. […] Assays were run in eight points concentration response mode with half log dilutions and IC50, EC50 or Ki (Cheng and Prusoff [1973]) values determined.

[3] = biological target: T2, Aurora A kinase (Homo sapiens, UniProt O14965); assay: Enzyme assay; type: biochemical
T2 construct: Eurofins
T2 sequence (O14965 whole entry): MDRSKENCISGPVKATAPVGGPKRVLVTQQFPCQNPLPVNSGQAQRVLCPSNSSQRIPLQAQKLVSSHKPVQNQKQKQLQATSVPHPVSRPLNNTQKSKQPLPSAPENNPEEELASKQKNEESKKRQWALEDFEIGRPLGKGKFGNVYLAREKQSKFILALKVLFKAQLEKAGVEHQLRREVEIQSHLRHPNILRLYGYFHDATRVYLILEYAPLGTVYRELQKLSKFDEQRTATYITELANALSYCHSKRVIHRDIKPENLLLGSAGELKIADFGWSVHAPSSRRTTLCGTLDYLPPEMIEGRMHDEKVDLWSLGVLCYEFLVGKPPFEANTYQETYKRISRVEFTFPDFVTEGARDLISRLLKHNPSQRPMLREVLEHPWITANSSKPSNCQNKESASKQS
Experimental: as §1

[4] = biological target: T3, Phosphodiesterase PDE10A2 (Homo sapiens, UniProt Q9Y233); assay: Enzyme assay; type: biochemical
T3 construct: Eurofins
T3 sequence (Q9Y233 267-1055 limits assumed): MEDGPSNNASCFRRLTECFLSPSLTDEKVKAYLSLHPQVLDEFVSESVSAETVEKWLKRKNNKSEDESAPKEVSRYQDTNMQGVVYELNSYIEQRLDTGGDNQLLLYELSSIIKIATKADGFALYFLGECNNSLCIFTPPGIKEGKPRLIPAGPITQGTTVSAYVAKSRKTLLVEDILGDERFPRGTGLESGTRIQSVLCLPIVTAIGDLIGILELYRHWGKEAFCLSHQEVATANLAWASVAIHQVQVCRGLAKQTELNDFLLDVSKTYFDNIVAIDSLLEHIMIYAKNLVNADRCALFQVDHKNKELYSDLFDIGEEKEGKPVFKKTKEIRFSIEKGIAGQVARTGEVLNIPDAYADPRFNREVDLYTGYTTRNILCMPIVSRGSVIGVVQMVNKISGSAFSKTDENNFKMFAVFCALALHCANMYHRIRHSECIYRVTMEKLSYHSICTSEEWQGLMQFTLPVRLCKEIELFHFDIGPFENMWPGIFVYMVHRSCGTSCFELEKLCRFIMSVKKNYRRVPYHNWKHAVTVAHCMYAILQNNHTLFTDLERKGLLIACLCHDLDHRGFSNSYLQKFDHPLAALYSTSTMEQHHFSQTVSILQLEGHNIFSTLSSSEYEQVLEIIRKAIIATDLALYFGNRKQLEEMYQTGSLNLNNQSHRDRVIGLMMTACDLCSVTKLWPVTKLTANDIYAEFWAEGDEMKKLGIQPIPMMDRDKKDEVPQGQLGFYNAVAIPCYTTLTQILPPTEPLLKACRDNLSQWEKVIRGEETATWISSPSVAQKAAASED
Experimental: as §1

[5] = biological target: T4, Fibroblast growth factor receptor 1 kinase (FGFR1 kinase) (Homo sapiens, UniProt P11362); assay: Enzyme assay; type: biochemical
T4 construct: Eurofins
Experimental: as §1

[6] = biological target: T5, Kinase insert domain receptor kinase (KDR) (Homo sapiens, UniProt P35968); assay: Enzyme assay; type: biochemical
T5 construct: Eurofins
T5 sequence (P35968 20-1356): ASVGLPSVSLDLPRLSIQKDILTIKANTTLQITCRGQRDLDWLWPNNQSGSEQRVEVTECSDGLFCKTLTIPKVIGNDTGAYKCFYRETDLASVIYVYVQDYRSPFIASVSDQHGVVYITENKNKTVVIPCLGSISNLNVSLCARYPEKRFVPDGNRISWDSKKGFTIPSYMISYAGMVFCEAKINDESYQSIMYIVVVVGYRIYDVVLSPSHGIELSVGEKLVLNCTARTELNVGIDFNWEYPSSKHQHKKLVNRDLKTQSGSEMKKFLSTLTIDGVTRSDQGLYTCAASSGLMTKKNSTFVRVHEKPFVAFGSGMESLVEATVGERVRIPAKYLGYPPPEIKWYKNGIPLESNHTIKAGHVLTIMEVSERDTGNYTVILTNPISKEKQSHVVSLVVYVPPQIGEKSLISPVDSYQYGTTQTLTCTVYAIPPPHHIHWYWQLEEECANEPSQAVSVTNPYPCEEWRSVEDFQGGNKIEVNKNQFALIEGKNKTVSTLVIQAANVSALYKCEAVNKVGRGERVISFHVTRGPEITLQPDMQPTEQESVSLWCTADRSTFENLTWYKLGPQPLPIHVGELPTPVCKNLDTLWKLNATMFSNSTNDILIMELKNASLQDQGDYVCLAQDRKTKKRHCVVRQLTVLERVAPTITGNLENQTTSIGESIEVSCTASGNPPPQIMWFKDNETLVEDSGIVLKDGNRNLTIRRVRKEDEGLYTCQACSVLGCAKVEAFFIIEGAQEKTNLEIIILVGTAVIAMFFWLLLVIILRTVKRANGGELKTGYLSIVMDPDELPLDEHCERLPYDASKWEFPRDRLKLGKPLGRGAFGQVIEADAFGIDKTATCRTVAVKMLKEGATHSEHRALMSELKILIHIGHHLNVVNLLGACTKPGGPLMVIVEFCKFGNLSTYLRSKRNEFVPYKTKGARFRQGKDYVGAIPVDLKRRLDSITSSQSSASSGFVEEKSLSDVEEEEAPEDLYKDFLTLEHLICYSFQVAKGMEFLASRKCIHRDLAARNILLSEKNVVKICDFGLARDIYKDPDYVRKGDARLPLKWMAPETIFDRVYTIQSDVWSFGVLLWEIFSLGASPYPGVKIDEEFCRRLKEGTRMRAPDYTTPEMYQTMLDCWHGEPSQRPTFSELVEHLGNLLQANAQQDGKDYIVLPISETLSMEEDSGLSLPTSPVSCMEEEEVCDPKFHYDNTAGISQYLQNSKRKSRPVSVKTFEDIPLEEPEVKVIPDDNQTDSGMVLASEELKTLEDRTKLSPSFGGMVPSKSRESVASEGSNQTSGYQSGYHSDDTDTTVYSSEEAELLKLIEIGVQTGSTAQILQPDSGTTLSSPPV
Experimental: as §1

[7] = biological target: T6, Thromboxane A2 synthase (Homo sapiens, UniProt P24557); assay: Enzyme assay; type: biochemical
T6 construct: Eurofins
T6 sequence (P24557 whole entry): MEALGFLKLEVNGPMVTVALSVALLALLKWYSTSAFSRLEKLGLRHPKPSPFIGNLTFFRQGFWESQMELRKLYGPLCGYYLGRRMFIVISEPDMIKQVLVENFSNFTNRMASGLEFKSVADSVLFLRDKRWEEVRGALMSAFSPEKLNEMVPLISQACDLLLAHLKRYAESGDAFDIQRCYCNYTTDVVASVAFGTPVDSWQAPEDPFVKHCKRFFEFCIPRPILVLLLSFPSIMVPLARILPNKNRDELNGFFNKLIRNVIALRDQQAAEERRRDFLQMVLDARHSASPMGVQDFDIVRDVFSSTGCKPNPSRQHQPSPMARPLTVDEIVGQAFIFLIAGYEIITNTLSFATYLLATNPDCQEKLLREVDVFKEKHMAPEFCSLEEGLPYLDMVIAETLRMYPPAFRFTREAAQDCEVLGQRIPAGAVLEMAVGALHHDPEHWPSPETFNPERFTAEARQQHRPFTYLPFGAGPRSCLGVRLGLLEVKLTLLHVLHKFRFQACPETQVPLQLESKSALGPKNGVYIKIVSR
Experimental: as §1

[8] = biological target: T7, Glycogen synthase kinase-3 β (Homo sapiens, UniProt P49841); assay: Enzyme assay; type: biochemical
T7 construct: Eurofins
T7 sequence (P49841 whole entry): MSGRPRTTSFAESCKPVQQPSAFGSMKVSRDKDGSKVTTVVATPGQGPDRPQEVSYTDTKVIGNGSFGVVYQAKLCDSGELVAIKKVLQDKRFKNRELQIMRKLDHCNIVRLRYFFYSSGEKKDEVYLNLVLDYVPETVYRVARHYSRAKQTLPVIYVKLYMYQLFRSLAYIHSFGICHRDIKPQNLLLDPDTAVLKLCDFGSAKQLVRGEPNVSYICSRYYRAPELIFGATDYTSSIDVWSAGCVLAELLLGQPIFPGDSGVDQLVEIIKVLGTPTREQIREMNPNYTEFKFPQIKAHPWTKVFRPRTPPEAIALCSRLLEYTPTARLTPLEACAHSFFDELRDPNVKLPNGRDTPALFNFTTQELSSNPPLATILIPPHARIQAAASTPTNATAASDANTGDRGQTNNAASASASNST
Experimental: as §1

[9] = biological target: T8, Neurotrophic receptor kinase 1 (NRK1) (Homo sapiens, UniProt P04629); assay: Enzyme assay; type: biochemical
T8 construct: Eurofins
T8 sequence (P04629 33-796): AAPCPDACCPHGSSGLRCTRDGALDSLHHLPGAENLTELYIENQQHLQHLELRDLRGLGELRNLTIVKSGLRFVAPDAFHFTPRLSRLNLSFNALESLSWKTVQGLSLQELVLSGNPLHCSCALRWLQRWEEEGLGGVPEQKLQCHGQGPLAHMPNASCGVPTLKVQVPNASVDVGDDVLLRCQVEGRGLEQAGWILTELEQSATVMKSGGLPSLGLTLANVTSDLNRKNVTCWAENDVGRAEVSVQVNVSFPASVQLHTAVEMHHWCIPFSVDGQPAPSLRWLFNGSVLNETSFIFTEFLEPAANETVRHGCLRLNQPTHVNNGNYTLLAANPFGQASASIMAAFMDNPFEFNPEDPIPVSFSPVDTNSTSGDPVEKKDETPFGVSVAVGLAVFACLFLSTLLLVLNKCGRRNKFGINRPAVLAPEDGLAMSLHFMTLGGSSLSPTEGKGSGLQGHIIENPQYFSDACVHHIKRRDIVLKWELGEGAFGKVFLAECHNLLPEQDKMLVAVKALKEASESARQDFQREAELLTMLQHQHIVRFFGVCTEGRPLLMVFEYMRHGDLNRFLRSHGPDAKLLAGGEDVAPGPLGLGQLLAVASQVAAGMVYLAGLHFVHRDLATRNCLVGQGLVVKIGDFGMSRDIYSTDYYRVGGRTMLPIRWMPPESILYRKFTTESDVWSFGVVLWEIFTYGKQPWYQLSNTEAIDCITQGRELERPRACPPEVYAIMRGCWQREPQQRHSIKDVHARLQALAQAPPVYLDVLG
Experimental: as §1

[10] = biological target: T9, Prostaglandin-endoperoxide synthase 2 (COX2) (Homo sapiens, UniProt P35354); assay: Enzyme assay; type: biochemical
T9 construct: Eurofins
Experimental: as §1

[11] = system: HCT116 MTAP KO cells; assay: HCT116 cell SDMA assay, MTAP KO; type: cell-based
From the text: (§2) The structure and in vitro properties of the compound are shown in Table 1 together with potency in the HCT116 isogenic cell line (MTAP WT and KO) and in the MAT2A biochemical assay (SAM endpoint).

[12] = system: HCT116 MTAP KO cells; assay: HCT116 cell SAM assay, MTAP KO; type: cell-based
From the text: as §2

[13] = 7-day-rat investigative safety study (in-life, histopathology, clinical chemistry); type: in vivo; conditions: for liver microscopic examination, hepatocyte glycogen stores: 30 mg/kg, compared with vehicles
Experimental: All in vivo experimental procedures were conducted in accordance with United Kingdom legislation (Animals (Scientific Procedures) Act, 1986) and were compliant with the ARRIVE guidelines. 8–10 week old male (210–230 g) Crl:WI Han Wistar rats (Charles River Laboratories Ltd, UK) were acclimatised to the facility for 10 days and then randomised to groups based on bodyweight.
Following euthanasia and blood sample collections, animals were necropsied and subjected to gross examination. Samples of liver, brain and heart were collected and fixed in 10% neutral buffered formalin at room temperature for 48 h, followed by routine histology processing (Leica Biosystems) to paraffin embedded wax blocks. Paraffin embedded tissues were cut into […] sections using a microtome (Leica Biosystems) and mounted on glass microscope slides. Tissue sections were stained with hematoxylin and eosin and coverslipped. Stained slides were digitally scanned using an AT2 Scanscope pathology slide scanner (Leica Biosystems) and whole slide images were reviewed by a veterinary pathologist.
A whole blood sample (2.0 mL) was collected into lithium heparin from the caudal vena cava under isoflurane/oxygen anaesthesia immediately prior to euthanasia. Blood samples were centrifuged for 10 min at 4 °C to separate the plasma fraction. Plasma samples were divided into 0.5 mL aliquots and frozen at […] for storage prior to chemistry analysis. Plasma chemistry analysis was performed by Charles River Laboratories (Edinburgh, Scotland) following standard procedures.

[14] = system: MTAP KO HCT116 xenograft; set-up: method as in Atkinson et al. [2024]; conditions: ref Atkinson et al. [2024], cited from earlier work

Cn1cc2cc(-c3cc4[nH]nc(C5CC5)c4n(-c4ccc(OC(F)F)cc4)c3=O)ccc2n1 [AZ’9567]
pIC50 [1]: < 4.30
pIC50 [2]: 5.39
pIC50 [3]: 4.08
pIC50 [4]: 4.97
pIC50 [5]: 4.30
pIC50 [6]: 5.02
pIC50 [7]: 5.05
pIC50 [8]: 5.80
pIC50 [9]: 4.42
pIC50 [10]: 4.36
HCT116 cell SDMA pIC50 MTAP KO [11]: 8.6
HCT116 cell SAM MTAP KO pIC50 [12]: 8.9
liver microscopic examination, hepatocyte glycogen stores ([13]; listed as AZMAT2Ai): decrease in glycogen stores
liver microscopic examination, hepatocyte glycogen stores ([13]; listed as MAT2Ai): minimal decrease in hepatocyte glycogen stores
clinical observations during the in-life phase ([13]; 3, 10, 30 mg/kg BID, 7 days): no clinical observations
liver steatosis, histopathology ([13]; 8-days study): no histopathological evidence of liver steatosis
food consumption and body weight ([13]; all dose groups): significant drop
liver pathology ([13]; any dose group): No significant abnormalities detected
bone marrow histopathology ([13]; data not shown): bone marrow toxicity affecting mostly the erythroid compartment
pancreas histopathology ([13]; loss of both exocrine and endocrine parenchyma, data not shown): dose-dependent pancreatic necrosis
histopathological examination of the heart or brain ([13]; rat, in vivo): No microscopic abnormalities
plasma chemistry: markers of liver injury or cholesterol levels ([13]; vehicle vs treated animals): no differences
depletion of SAM ([14]; 20 mg/kg BID, day 24): > 90%
depletion of SDMA ([14]; 20 mg/kg BID, day 24): > 90%
anti-tumour response ([14]; 20 mg/kg BID): robust anti-tumour response
anti-tumour and PD modulation (SDMA and SAM) ([14]; 3, 10, 30 mg/kg BID): robust anti-tumour and PD modulation
